Values after ≈ are worked out from the molar mass of the structure shown.
Columns and labels:
[1] = system: Streptococcus pyogenes (Isolate ID ATCC 51339); experiment: Antibacterial activity, MIC, S. pyogenes; assay type: cell-based; conditions: broth microdilution or agar dilution; for MIC: Streptococcus pyogenes, ATCC51339, Gram positive strain
In short: (§1)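 MICs determined by broth microdilution or agar dilution according to CLSI guidelines (M7-A7).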

[2] = system: Enterococcus faecalis (Isolate ID ATCC 29212); experiment: Antibacterial activity, MIC, E. faecalis; assay type: cell-based; conditions: Gram positive strain, broth microdilution or agar dilution; for MIC: Enterococcus faecalis, ATCC29212
In short: as §1

physchem = conditions: for solubility at 24 h: kinetic from dmso stock
In short: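 DMSO doubling dilutions were diluted twenty-fold into 100 mM citrate (pH 4), PBS (pH 7.4) or carbonate-bicarbonate (pH 9). After 24 h equilibration at room temperature, absorbance was read at 620 nm. The reported value is the highest concentration without measurable precipitate.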

[3] = system: Haemophilus influenzae (Isolate ID ATCC 49247); experiment: Antibacterial activity, MIC, H. influenzae; assay type: cell-based; conditions: Gram negative strain, broth microdilution or agar dilution; for MIC: Haemophilus influenzae, ATCC49247
In short: as §1

[4] = system: Staphylococcus aureus (Isolate ID ATCC 29213); experiment: Antibacterial activity, MIC, S. aureus; assay type: cell-based; conditions: broth microdilution or agar dilution; for MIC: Staphylococcus aureus, ATCC29213, Gram positive strain
In short: as §1

[5] = pH 7.4, aqueous buffer, Max Solubility
[6] = pH 7.4, aqueous buffer, Solubility (pH 7.4)
[7] = pH 7.4, aqueous buffer, Solubility Range
[8] = pH 7.4, aqueous buffer, Solubility Range (maximum solubility)
[9] = pH 9, aqueous buffer, Max Solubility
[10] = pH 9, aqueous buffer, Solubility Range (maximum solubility)

| Compound | MIC [1] [µg/mL] | MIC [2] [µg/mL] | solubility at 24 h (physchem; [5]) [µg/mL] | solubility at 24 h (physchem; [6]) [µg/mL] | solubility at 24 h (physchem; [7]) [µg/mL] | solubility at 24 h (physchem; [8]) [µg/mL] | MIC [3] [µg/mL] | MIC [4] [µg/mL] | solubility at 24 h (physchem; [9]) [µg/mL] | solubility at 24 h (physchem; [10]) [µg/mL] | Antibacterial Activity (MIC) S. pyogenes (ATCC 51339) ([1]; Gram positive strain) | Antibacterial Activity (MIC) E. faecalis (ATCC 29212) [2] | Solubility (pH 7.4) (physchem; pH 7.4) [μg/mL] | Max Solubility (physchem; pH 9) | Antibacterial Activity (MIC) H. influenzae (ATCC 49247) [3] | Antibacterial Activity (MIC) S. aureus (ATCC 29213) ([4]; Gram positive strain) |
| --- | --- | --- | --- | --- | --- | --- | --- | --- | --- | --- | --- | --- | --- | --- | --- | --- |
| CCNC(=O)Nc1nc2cc(-c3cnc(N4CCC(CC)(C(=O)O)CC4)cn3)cc(-c3nccc(C)n3)c2s1 [Compound 112] | ≤ 0.25 | ≤ 0.25 |  | 25 (≈ 45.7 µM) | 12.5 to 400 (≈ 22.9 to 732 µM) |  | 1 to 16 (≈ 1.83 to 29.3 µM) | 0.25 to 1 (≈ 0.457 to 1.83 µM) | 100 (≈ 183 µM) | 12.5 to 400 (≈ 22.9 to 732 µM) |  |  |  |  |  |  |
| CCCC1(C(=O)O)CCN(c2ncc(-c3cc(-c4nccc(C)n4)c4sc(NC(=O)NCC)nc4c3)cn2)CC1 [Compound 120] | ≤ 0.25 | ≤ 0.25 |  | 400 (≈ 713 µM) | 400 to 800 (≈ 713 to 1430 µM) |  | > 16 | ≤ 0.25 | ≥ 800 | > 800 |  |  |  |  |  |  |
| CCCC1(C(=O)O)CCN(c2ncc(-c3cc(-c4cc(OC)ncn4)c4sc(NC(=O)NCC)nc4c3)cn2)CC1 [Compound 121] | ≤ 0.25 | ≤ 0.25 |  | 100 (≈ 173 µM) | 12.5 to 400 (≈ 21.7 to 694 µM) |  | 1 to 16 (≈ 1.73 to 27.7 µM) | ≤ 0.25 | ≥ 800 | > 800 |  |  |  |  |  |  |
| CCCC1(C(=O)O)CCN(c2ncc(-c3cc(-c4cc(OC)ccn4)c4sc(NC(=O)NCC)nc4c3)cn2)CC1 [Compound 122] | ≤ 0.25 | ≤ 0.25 | ≥ 800 | ≥ 800 | > 800 | > 800 | 1 to 16 (≈ 1.74 to 27.8 µM) | ≤ 0.25 |  |  |  |  |  |  |  |  |
| CCCC1(C(=O)O)CCN(c2ncc(-c3cc(-c4cc(C#N)ccn4)c4sc(NC(=O)NCC)nc4c3)cn2)CC1 [Compound 123] | ≤ 0.25 | ≤ 0.25 | ≥ 800 | ≥ 800 | > 800 | > 800 | > 16 | ≤ 0.25 |  |  |  |  |  |  |  |  |
| CCCC1(C(=O)O)CCN(c2ncc(-c3cc(-c4ccc(C#N)cn4)c4sc(NC(=O)NCC)nc4c3)cn2)CC1 [Compound 124] | ≤ 0.25 | ≤ 0.25 | ≥ 800 | ≥ 800 | > 800 | > 800 | 1 to 16 (≈ 1.75 to 28 µM) | ≤ 0.25 |  |  |  |  |  |  |  |  |

Second part, the compound after the results:

| MIC [1] [µg/mL] | MIC [2] [µg/mL] | solubility at 24 h (physchem; [5]) [µg/mL] | solubility at 24 h (physchem; [6]) [µg/mL] | solubility at 24 h (physchem; [7]) [µg/mL] | solubility at 24 h (physchem; [8]) [µg/mL] | MIC [3] [µg/mL] | MIC [4] [µg/mL] | solubility at 24 h (physchem; [9]) [µg/mL] | solubility at 24 h (physchem; [10]) [µg/mL] | Antibacterial Activity (MIC) S. pyogenes (ATCC 51339) ([1]; Gram positive strain) | Antibacterial Activity (MIC) E. faecalis (ATCC 29212) [2] | Solubility (pH 7.4) (physchem; pH 7.4) [μg/mL] | Max Solubility (physchem; pH 9) | Antibacterial Activity (MIC) H. influenzae (ATCC 49247) [3] | Antibacterial Activity (MIC) S. aureus (ATCC 29213) ([4]; Gram positive strain) | Compound |
| --- | --- | --- | --- | --- | --- | --- | --- | --- | --- | --- | --- | --- | --- | --- | --- | --- |
| ≤ 0.25 | ≤ 0.25 | ≥ 800 | ≥ 800 | > 800 | > 800 | 0.25 to 1 (≈ 0.444 to 1.78 µM) | ≤ 0.25 |  |  |  |  |  |  |  |  | CCNC(=O)Nc1nc2cc(-c3cnc(N4CCC(CC)(C(=O)O)CC4)nc3)cc(-c3cc(OC)ncn3)c2s1 [Compound 110] |
| 1 to 16 (≈ 2.2 to 35.2 µM) | 0.25 to 1 (≈ 0.55 to 2.2 µM) | 100 (≈ 220 µM) | 100 (≈ 220 µM) | 12.5 to 400 (≈ 27.5 to 880 µM) | 12.5 to 400 (≈ 27.5 to 880 µM) | > 16 | 1 to 16 (≈ 2.2 to 35.2 µM) |  |  |  |  |  |  |  |  | CCNC(=O)Nc1nc2cc(-c3cnc(N4CCC(CC)(C(=O)O)CC4)nc3)ccc2s1 [Compound 113] |
| 1 to 16 (≈ 1.85 to 29.6 µM) | ≤ 0.25 | 400 (≈ 741 µM) | 400 (≈ 741 µM) | 400 to 800 (≈ 741 to 1480 µM) | 400 to 800 (≈ 741 to 1480 µM) | > 16 | 1 to 16 (≈ 1.85 to 29.6 µM) |  |  |  |  |  |  |  |  | CCNC(=O)Nc1nc2cc(-c3cnc(N4CCC(CC)(C(=O)O)CC4)nc3)cc(N3CCOCC3)c2s1 [Compound 114, 4-ethyl-1-[5-[2-(ethylcarbamoylamino)-7-morpholino-1,3-benzothiazol-5-yl]pyrimidin-2-yl]piperidine-4-carboxylic acid] |
| 1 to 16 (≈ 1.82 to 29.2 µM) | ≤ 0.25 |  | 400 (≈ 729 µM) | 400 to 800 (≈ 729 to 1460 µM) |  | > 16 | ≤ 0.25 | ≥ 800 | > 800 |  |  |  |  |  |  | CCNC(=O)Nc1nc2cc(-c3cnc(N4CCC(CC)(C(=O)O)CC4)nc3)cc(-c3ccc(F)cc3)c2s1 [Compound 115] |
| ≤ 0.25 | ≤ 0.25 |  | 400 (≈ 733 µM) | 400 to 800 (≈ 733 to 1470 µM) |  | 1 to 16 (≈ 1.83 to 29.3 µM) | ≤ 0.25 |  |  |  |  |  |  |  |  | CCCC1(C(=O)O)CCN(c2ncc(-c3cc(-c4ccccn4)c4sc(NC(=O)NCC)nc4c3)cn2)CC1 [Compound 117] |
| ≤ 0.25 | ≤ 0.25 |  | 400 (≈ 732 µM) | 400 to 800 (≈ 732 to 1460 µM) |  | 1 to 16 (≈ 1.83 to 29.3 µM) | ≤ 0.25 | ≥ 800 | > 800 |  |  |  |  |  |  | CCCC1(C(=O)O)CCN(c2ncc(-c3cc(-c4cnccn4)c4sc(NC(=O)NCC)nc4c3)cn2)CC1 [Compound 118] |
|  |  |  |  |  |  |  |  |  |  | C (“C” activity >1.0 μg/mL-16 μg/mL) | A (“A” activity ≦0.25 μg/mL) | 400 | ≧800 μg/mL | D (“D” activity >16 μg/mL) | A (“A” activity ≦0.25 μg/mL) | CCCC1(C(=O)OCC)CCN(c2ncc(-c3cc(Br)c4sc(NC(=O)NCC)nc4c3)cn2)CC1 [Compound 119] |
